# In PMC11111404, “Discovery of potent small-molecule inhibitors of lipoprotein(a) formation” (Nature, 2024):
# Where “and” joins values, the source holds several entries; their conditions need not be identical. Identical values can stand only once. Like-named read-outs stand apart in the source and are kept apart here.
# Experiments:
# apo(a) KIV2 = biological target: T1, apo(a) KIV2 (Homo sapiens, UniProt P08519); experiment: ITC binding to apo(a) KIV2; conditions: for binding to KIV2 / Kd: ITC; for binding to KIV2: in words; for Fold-difference (KIV2:KIV8): ratio of ITC Kd values KIV2:KIV8
# T1 construct: made in house
# T1 sequence (P08519 141-219 limits assumed): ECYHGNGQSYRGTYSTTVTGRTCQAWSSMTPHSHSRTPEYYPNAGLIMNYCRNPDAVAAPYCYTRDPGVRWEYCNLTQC
# Protocol: The nucleotide sequence encoding the human LPA gene (NP_005568.2) was inserted into a mammalian expression vector containing a cytomegalovirus promoter. Protein expression was performed by transient transfection of human embryonic kidney 293 (HEK293) cells cultured in serum-free medium. The culture medium was collected five days after transfection and human apo(a) protein was purified using L-lysine affinity chromatography. Nucleotide sequences encoding various KIV domains of human apo(a) and human and rat plasminogen were inserted into a pET21a Escherichia coli expression vector. Bacterial BL21(DE3) was used as the expression host, and the induction of protein expression was performed in 2× TY medium with 1 mM isopropyl β-D-1-thiogalactopyranoside at 37 °C for 5 h. Cells were collected and stored at –80 °C for subsequent protein purification and refolding. The frozen cell pellets were lysed and inclusion bodies were purified. The protein refolding was performed using the rapid-dilution method, and the refolded proteins were further purified by size-exclusion chromatography. All protein concentrations were determined by A280.
# Experiments were performed on a MicroCal Auto-iTC200 titration calorimeter (Malvern Panalytical), with a cell volume of 200 μl and a 40-μl microsyringe. Experiments were performed at 25 °C while stirring at 750 rpm in ITC buffer (50 mM phosphate buffer at pH 8.0). The microsyringe was loaded with a solution of the respective compounds, with the concentration measured by quantitative nuclear magnetic resonance, and was inserted into the calorimetric cell prefilled with the respective recombinant proteins of known concentration in ITC buffer. The system was equilibrated to 25 °C and an extra delay of 60 s was applied. The first titrations were performed using an initial control injection of 0.5 μl, followed by 18 identical injections of 2 μl, with a duration of 4 s per injection and 150-s intervals between injections. The second titration was performed over the first titration without cleaning the cell and was carried out with continuous injections as an automation method in a MicroCal Auto-iTC200. The second titrations were performed using 19 identical injections of 2 μl, with a duration of 4 s per injection and 150-s injection intervals. The data were corrected for ligand heats of dilution and were deconvoluted using MicroCal PEAQ-ITC Analysis Software to yield the enthalpy of binding (ΔH) and the binding constant (K). Thermodynamic parameters were calculated using the basic equation of thermodynamics (ΔG = ΔH – TΔS = –RTlnKd), where ΔG, ΔH and ΔS are the changes in free energy, enthalpy and entropy of binding, respectively; Kd is the equilibrium dissociation constant; T is the absolute temperature (kelvins); and R is the gas constant (1.987 cal mol^−1 K^−^1). A single-binding-site model was used in MicroCal PEAQ-ITC Analysis Software v.0.9.
# plasmin activity = biological target: T2, plasmin activity (Rattus norvegicus, UniProt Q01177); experiment: Rat plasma plasmin (plasminogen) activity ex vivo after oral dosing; type: in vivo; conditions: for plasma plasmin activity measured ex vivo: rats treated orally at pharmacological doses; for PLG activity % change from Vehicle: Vehicle mean 267.0; for PLG activity (Vmax), % change from Vehicle: vehicle mean 431.7
# T2 construct: Plasma samples were collected via the abdominal aorta; from tissue; host or cells: Citrated plasma of orally dosed male Sprague Dawley rats
# T2 sequence (Q01177 20-812 limits assumed): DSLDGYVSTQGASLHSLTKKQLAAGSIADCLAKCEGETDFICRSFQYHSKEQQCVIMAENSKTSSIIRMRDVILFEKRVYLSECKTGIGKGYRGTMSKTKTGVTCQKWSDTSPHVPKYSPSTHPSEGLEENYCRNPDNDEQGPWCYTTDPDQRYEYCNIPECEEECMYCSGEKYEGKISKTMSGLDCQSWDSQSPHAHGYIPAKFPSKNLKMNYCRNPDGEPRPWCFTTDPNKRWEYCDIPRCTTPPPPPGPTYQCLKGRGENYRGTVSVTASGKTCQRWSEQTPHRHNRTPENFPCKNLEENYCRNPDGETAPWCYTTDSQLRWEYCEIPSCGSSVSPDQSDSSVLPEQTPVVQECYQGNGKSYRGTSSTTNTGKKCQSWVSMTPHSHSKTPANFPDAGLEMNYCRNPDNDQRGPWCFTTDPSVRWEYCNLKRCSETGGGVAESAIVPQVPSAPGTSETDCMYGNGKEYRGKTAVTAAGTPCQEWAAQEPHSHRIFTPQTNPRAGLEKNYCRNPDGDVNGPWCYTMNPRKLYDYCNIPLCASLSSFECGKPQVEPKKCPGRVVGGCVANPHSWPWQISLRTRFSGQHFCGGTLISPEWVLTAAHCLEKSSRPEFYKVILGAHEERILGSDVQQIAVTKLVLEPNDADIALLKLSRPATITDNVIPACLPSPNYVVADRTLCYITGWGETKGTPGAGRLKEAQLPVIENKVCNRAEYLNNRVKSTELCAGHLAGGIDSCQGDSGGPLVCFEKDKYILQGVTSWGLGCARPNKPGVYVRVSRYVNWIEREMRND
# Protocol: Male Sprague Dawley rats (Charles River, average body weight 310 g, aged eight to nine weeks old) were housed in cages with a standard light cycle (12-h light, 12-h dark), at room temperature (22 ± 4 °C), with a relative humidity of 30–70%. Rats were identified by numbers on the cage cards. After arrival, rats were fed on a normal diet (Harlan Teklad diet 2014) and randomized to treatment groups (n = 5 per group) by baseline plasma plasminogen concentration and activity using a BRAT. LSN3441732 and LY3473329 were administered QD orally at three dose levels (3.7, 12.3 and 37 mg kg^−1; 3.2, 10.5 and 31.6 mg kg^−1 per dose, respectively) or vehicle (10 ml kg^−1, 1% HEC, 0.25% Tween-80, Antifoam) for four days. Terminal blood was drawn under general anaesthesia 24 h after the day-4 oral dose. Plasma samples were collected via the abdominal aorta into a premeasured anticoagulant BD Vacutainer used for blood collection (2.7 ml, buffered sodium citrate). The liver was flash frozen in liquid nitrogen. To measure plasminogen activity, 100 µl plasma per well was added to a 96-well plate (Corning) and the following were added to the indicated concentrations: 7.5 mM CaCl2 and 117 mM NaCl. Wells were mixed and warmed to 37 °C. Urokinase (Millipore) was added at 125 U per well and the plate was incubated at 37 °C for 4 min. The plasminogen substrate Chromogenix S-2251 (DiaPharma) was added to a concentration of 3.3 mM. The mixture was added and the plate was sealed and placed in a prewarmed plate reader, shaken, and the absorbance read every 30 s for 2 h. The maximum slope for each curve was determined and the percentage inhibition was calculated relative to untreated controls. Plasminogen protein was measured using ELISA kits for rat (Abcam ab157740) according to the manufacturer’s instructions. Plasminogen activity (percentage) and mass (µg ml^−1) in rat were analysed by ANOVA in JMP 16.1.0. The percentage reduction of plasminogen activity and mass for each treated group was compared with vehicle by Dunnett’s method.
# [1] = Pharmacokinetics in monkey plasma after oral dosing; type: in vivo
# [2] = cynomolgus, oral 20 mg/kg, day 14
# [3] = cynomolgus, oral 40 mg/kg, day 14
# [4] = rat, individual animals, dose 3.7 mpk, 3.7 mg/kg
# [5] = rat, individual animals, dose 12.3 mpk, 12.3 mg/kg
# [6] = rat, individual animals, dose 37 mpk, 37 mg/kg
# [7] = cynomolgus, oral 2 mg/kg, day 14
# [8] = cynomolgus, oral 10 mg/kg, day 14
# [9] = rat plasma, 3473329 dose 3.2 mpk, individual animal, 3.2 mg/kg
# [10] = rat plasma, 3473329 dose 10.5 mpk, individual animal, 10.5 mg/kg
# [11] = rat plasma, 3473329 dose 31.6 mpk, individual animal, 31.6 mg/kg
smiles,measurement,setting,value
Cl.O=C(O)[C@@H](Cc1ccccc1)[C@H]1CCNC1 [LSN3353871],binding to KIV2,apo(a) KIV2,does not bind
same,plasma plasmin activity measured ex vivo,plasmin activity,no inhibitory action
same,Cmax,[1]; [2],22.3 µM
same,Tmax,[1]; [2],1.5 ± 0.5 h
same,AUC(0-t),"[1]; cynomolgus, oral 20 mg/kg, day 14, read-out: AUC(0–12 h)",136 µM·h
same,Cmax,[1]; [3],29.6 µM
same,Tmax,[1]; [3],1.5 ± 0.5 h
same,AUC(0-t),"[1]; cynomolgus, oral 40 mg/kg, day 14, read-out: AUC(0–12 h)",210 µM·h
Cl.Cl.O=C(Nc1cccc(C[C@H](C(=O)O)[C@H]2CCNC2)c1)Nc1cccc(C[C@H](C(=O)O)[C@H]2CCNC2)c1 [LSN3441732],Kd,apo(a) KIV2,130000 nM
same,binding to KIV2,apo(a) KIV2,ruled out
same,Fold-difference (KIV2:KIV8),apo(a) KIV2,>13000
same,"PLG activity (Vmax), Plasminogen (mean of replicates)",plasmin activity; [4],240.6 and 263.3 and 236.5 and 207.9 and 235.8
same,"PLG activity (Vmax), Replicate 1",plasmin activity; [4],239.342 and 259.606 and 234.747 and 204.985 and 233.598
same,"PLG activity (Vmax), Replicate 2",plasmin activity; [4],241.939 and 266.922 and 238.196 and 210.884 and 238.070
same,PLG activity % change from Vehicle,plasmin activity; [4],-9.88% and -1.40% and -11.44% and -22.12% and -11.68%
same,"PLG activity (Vmax), Plasminogen (mean of replicates)",plasmin activity; [5],282.2 and 249.5 and 239.5 and 205.0 and 186.8
same,"PLG activity (Vmax), Replicate 1",plasmin activity; [5],284.452 and 249.068 and 238.009 and 201.341 and 183.623
same,"PLG activity (Vmax), Replicate 2",plasmin activity; [5],279.877 and 249.884 and 240.921 and 208.639 and 189.912
same,PLG activity % change from Vehicle,plasmin activity; [5],5.68% and -6.57% and -10.32% and -23.23% and -30.05%
same,"PLG activity (Vmax), Plasminogen (mean of replicates)",plasmin activity; [6],195.8 and 173.1 and 184.9 and 150.3 and 200.6
same,"PLG activity (Vmax), Replicate 1",plasmin activity; [6],217.532 and 172.649 and 184.379 and 149.241 and 196.980
same,"PLG activity (Vmax), Replicate 2",plasmin activity; [6],174.037 and 173.594 and 185.398 and 151.449 and 204.259
same,PLG activity % change from Vehicle,plasmin activity; [6],-26.67% and -35.16% and -30.76% and -43.69% and -24.86%
same,plasma plasmin activity measured ex vivo,plasmin activity,decreased plasma plasmin activity
same,Cmax,[1]; [7],0.754 ± 0.428 µM
same,Tmax,[1]; [7],3.81 ± 2.14 h
same,AUC(0-t),"[1]; cynomolgus, oral 2 mg/kg, day 14, read-out: AUC(0-96 hr)",5.63 µM·h
same,Cmax,[1]; [8],4.38 µM
same,Tmax,[1]; [8],2.06 ± 1.32 h
same,AUC(0-t),"[1]; cynomolgus, oral 10 mg/kg, day 14, read-out: AUC(0-96 hr)",22.2 µM·h
O=C(O)[C@@H](Cc1cccc(CN(Cc2cccc(C[C@H](C(=O)O)[C@H]3CCNC3)c2)Cc2cccc(C[C@H](C(=O)O)[C@H]3CCNC3)c2)c1)[C@H]1CCNC1 [LY3473329],Kd,apo(a) KIV2,3900 nM
same,Fold-difference (KIV2:KIV8),apo(a) KIV2,177
same,"PLG activity (Vmax), Plasminogen (mean of replicates)",plasmin activity; [9],454.0 and 451.6 and 414.5 and 449.4 and 437.1
same,"PLG activity (Vmax), Replicate 1",plasmin activity; [9],455.671 and 447.416 and 413.515 and 443.630 and 436.745
same,"PLG activity (Vmax), Replicate 2",plasmin activity; [9],452.252 and 455.835 and 415.508 and 455.110 and 437.378
same,"PLG activity (Vmax), % change from Vehicle",plasmin activity; [9],5.15% and 4.60% and -3.99% and 4.08% and 1.23%
same,"PLG activity (Vmax), Plasminogen (mean of replicates)",plasmin activity; [10],426.8 and 390.7 and 429.5 and 340.1 and 383.7
same,"PLG activity (Vmax), Replicate 1",plasmin activity; [10],431.402 and 387.065 and 425.922 and 337.633 and 378.355
same,"PLG activity (Vmax), Replicate 2",plasmin activity; [10],422.258 and 394.290 and 433.134 and 342.491 and 389.046
same,"PLG activity (Vmax), % change from Vehicle",plasmin activity; [10],-1.14% and -9.51% and -0.51% and -21.24% and -11.13%
same,"PLG activity (Vmax), Plasminogen (mean of replicates)",plasmin activity; [11],357.4 and 336.9 and 317.3 and 381.6 and 333.2
same,"PLG activity (Vmax), Replicate 1",plasmin activity; [11],356.862 and 337.031 and 314.998 and 380.162 and 336.487
same,"PLG activity (Vmax), Replicate 2",plasmin activity; [11],357.898 and 336.831 and 319.531 and 383.010 and 329.925
same,"PLG activity (Vmax), % change from Vehicle",plasmin activity; [11],-17.22% and -21.96% and -26.52% and -11.62% and -22.82%
same,Cmax,"[1]; Chinese cynomolgus, oral 1 mg/kg, day 15",0.911 ± 0.225 µM
same,AUC(0-t),"[1]; Chinese cynomolgus, oral 1 mg/kg, day 15, read-out: AUC(0-96 hr)",35.8 µM·h
same,Tmax,"[1]; Chinese cynomolgus, oral 10 mg/kg, day 15",0.5 h
same,Cmax,"[1]; Chinese cynomolgus, oral 100 mg/kg, day 15",4.85 µM
